Source: patent US9090632B2, “Bicyclic oxazole and thiazole compounds and their use as allosteric modulators of mGluR5 receptors” (Vanderbilt University, priority 2010, dated 2015)

Tests used:
[1] = molecular target: human mGluR5 (Homo sapiens, UniProt P41594); assay: Cell-based functional Ca2+ mobilization assay, potentiation of glutamate EC20 response (H10H cell-line); conditions: H10H cell-line expressing recombinant human mGluR5; for Emax: in presence of glutamate EC20, normalized to maximal glutamate response; for EC50: potentiation in presence of glutamate EC20
How it was run: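 H10H HEK293A cells expressing human mGluR5a were loaded with 2 μM fluo-4 AM in HBSS/20 mM HEPES/2.5 mM probenecid pH 7.4 and read on an FDSS 6000. Compound was added after a ~3 s baseline, followed 2.3 min later by an EC20 glutamate concentration; potentiation EC50 came from non-linear curve fitting.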

[2] = tested on: amphetamine-induced hyperlocomotion; assay: Reversal of amphetamine-induced hyperlocomotion; format: in vivo, rat; conditions: male Sprague-Dawley rats; test compound po in 20% HP-β-CD; amphetamine sulfate 1 mg/kg sc
Procedure: Locomotor activity was assessed as mean distance traveled (cm) in standard 16×16 photocell testing chambers measuring 43.2 cm (Length)×43.2 cm (Width)×30.5 cm (Height) (Med Associates, St. Albans, Vt.). Animals were habituated to individual activity chambers for at least 30 min prior to drug administration. Following administration of drug or vehicle, activity was recorded for a 90 minute time period. Data was expressed as the mean (±SEM) distance traveled recorded in 5 min intervals over the test period. The data was analyzed using repeated measures analysis of variance (ANOVA) followed by post-hoc testing using Dunnett's test, when appropriate. A difference was considered significant when p≦0.05. […]
The animals were habituated in Smart Open Field locomotor activity test chambers (Hamilton-Kinder, San Diego, Calif.) with 16×16 photobeams to automatically record locomotor activity for 30 min and then dosed with vehicle or test compound. […] At 60 min, all rats were injected subcutaneously with 1 mg/kg amphetamine or vehicle and then monitored for an additional 60 min. Animals are monitored for a total of 120 minutes. Data are expressed as changes in ambulation defined as total number of beam breaks per 5 min periods.
The data for the dose-response studies were analyzed by a between-group analysis of variance. […]

human mGluR5, sequence (P41594 21-1180 isoform P41594-2 limits assumed): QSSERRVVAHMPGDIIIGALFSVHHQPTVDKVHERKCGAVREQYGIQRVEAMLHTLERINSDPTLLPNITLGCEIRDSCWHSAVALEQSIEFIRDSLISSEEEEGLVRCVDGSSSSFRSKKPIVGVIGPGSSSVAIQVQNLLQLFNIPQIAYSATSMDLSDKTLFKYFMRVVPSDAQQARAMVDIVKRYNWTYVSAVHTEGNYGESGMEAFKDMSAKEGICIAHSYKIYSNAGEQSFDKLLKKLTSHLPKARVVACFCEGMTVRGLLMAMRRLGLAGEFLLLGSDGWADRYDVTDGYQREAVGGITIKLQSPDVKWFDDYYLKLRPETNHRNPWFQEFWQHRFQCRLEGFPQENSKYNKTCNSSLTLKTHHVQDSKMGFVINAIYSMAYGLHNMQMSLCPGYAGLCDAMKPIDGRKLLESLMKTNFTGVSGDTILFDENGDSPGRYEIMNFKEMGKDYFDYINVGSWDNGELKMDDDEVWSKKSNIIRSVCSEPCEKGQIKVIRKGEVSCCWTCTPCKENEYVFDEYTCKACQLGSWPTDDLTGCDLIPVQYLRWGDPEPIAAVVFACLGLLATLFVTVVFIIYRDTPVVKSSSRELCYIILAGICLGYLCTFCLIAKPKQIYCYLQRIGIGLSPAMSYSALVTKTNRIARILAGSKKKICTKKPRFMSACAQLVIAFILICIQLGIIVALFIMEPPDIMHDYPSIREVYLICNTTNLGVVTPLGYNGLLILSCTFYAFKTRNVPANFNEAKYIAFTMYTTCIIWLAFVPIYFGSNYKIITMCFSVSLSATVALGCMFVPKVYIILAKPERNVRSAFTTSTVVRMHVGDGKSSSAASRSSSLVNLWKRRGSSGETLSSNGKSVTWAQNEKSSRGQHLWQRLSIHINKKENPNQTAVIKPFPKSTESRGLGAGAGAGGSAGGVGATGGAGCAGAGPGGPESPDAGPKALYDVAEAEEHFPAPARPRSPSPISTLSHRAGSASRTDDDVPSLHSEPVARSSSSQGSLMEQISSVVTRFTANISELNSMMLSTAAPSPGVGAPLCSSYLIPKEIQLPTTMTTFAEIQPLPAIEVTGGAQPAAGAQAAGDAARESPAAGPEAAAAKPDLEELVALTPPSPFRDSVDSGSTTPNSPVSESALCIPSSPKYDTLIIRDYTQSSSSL

Row | Emax [1] [%] | EC50 [1] [nM] | melting point [°C] | Compound | reversal of amphetamine-induced hyperlocomotion [2]
1 | 84 | 380 | – | O=C(c1ccc(F)cc1)N1CCc2nc(COc3ccccc3)oc2C1 [Example B1, 5-[(4-fluorophenyl)carbonyl]-2-(phenoxymethyl)-4,5,6,7-tetrahydro[1,3]oxazolo[5,4-c]pyridine] | Dose-dependent results for reversal of amphetamine-induced hyperlocomotion
2 | 44 | 148 | 70 | O=C(c1cc(F)cc(F)c1)N1CCc2nc(COc3cccc(F)c3)oc2C1 [Example B30] | –
3 | 14 | > 30200 | 198.1 | O=C(c1ccc2[nH]cnc2c1)N1CCc2nc(COc3ccccc3)oc2C1 [Example B156] | –
4 | 61 | 2190 | 102.9 | N#Cc1ccc(C(=O)N2CCc3nc(COc4cccc(F)c4)oc3C2)cc1F [Example B89] | –
